Laboratory results published in ChEMBL document CHEMBL5375960, “Design and Synthesis of Novel Cereblon Binders for Use in Targeted Protein Degradation” (J Med Chem, 2023).
Calls of active or inactive are those of the source. The rule behind the calls is not given here.

Experiments:
[1] = target: Protein cereblon/DNA damage-binding protein 1 (Homo sapiens, UniProt Q96SW2); experiment: Displacement of Cy5-labeled tracer CC0782985 from 6His-tagged CRBN (1 to 442 residues)/DDB1 (1 to 1140 residues) (unknown origin) incubated for 20 mins by TR-FRET assay; assay type: protein assay
[2] = target: Zinc finger protein Aiolos (Homo sapiens, UniProt Q9UKT9); experiment: Induction of ePL tagged Aiolos degradation in human DF15 cells incubated for 4 hrs by luminescence based assay; assay type: cell-based
[3] = target: T1, Eukaryotic peptide chain release factor GTP-binding subunit ERF3A (Homo sapiens, UniProt P15170); experiment: Induction of ePL tagged GSPT1 degradation in human DF15 cells incubated for 20 hrs by luminescence based assay; assay type: cell-based
[4] = target: T1, Eukaryotic peptide chain release factor GTP-binding subunit ERF3A; experiment: Induction of ePL tagged GSPT1 degradation in human DF15 cells assessed as remaining activity incubated for 20 hrs by luminescence based assay relative to control; assay type: cell-based; set-up: concentration or dose not given beside the values
[5] = target: T1, Eukaryotic peptide chain release factor GTP-binding subunit ERF3A; experiment: Induction of ePL tagged GSPT1 degradation in human DF15 cells incubated for 20 hrs by luminescence based assay relative to control; assay type: cell-based
[6] = target: T2, Androgen receptor (Homo sapiens) (UniProt P10275); experiment: Induction of androgen receptor degradation in human VCaP cells incubated for 24 hrs by ELISA; assay type: cell-based
T2 sequence (whole entry): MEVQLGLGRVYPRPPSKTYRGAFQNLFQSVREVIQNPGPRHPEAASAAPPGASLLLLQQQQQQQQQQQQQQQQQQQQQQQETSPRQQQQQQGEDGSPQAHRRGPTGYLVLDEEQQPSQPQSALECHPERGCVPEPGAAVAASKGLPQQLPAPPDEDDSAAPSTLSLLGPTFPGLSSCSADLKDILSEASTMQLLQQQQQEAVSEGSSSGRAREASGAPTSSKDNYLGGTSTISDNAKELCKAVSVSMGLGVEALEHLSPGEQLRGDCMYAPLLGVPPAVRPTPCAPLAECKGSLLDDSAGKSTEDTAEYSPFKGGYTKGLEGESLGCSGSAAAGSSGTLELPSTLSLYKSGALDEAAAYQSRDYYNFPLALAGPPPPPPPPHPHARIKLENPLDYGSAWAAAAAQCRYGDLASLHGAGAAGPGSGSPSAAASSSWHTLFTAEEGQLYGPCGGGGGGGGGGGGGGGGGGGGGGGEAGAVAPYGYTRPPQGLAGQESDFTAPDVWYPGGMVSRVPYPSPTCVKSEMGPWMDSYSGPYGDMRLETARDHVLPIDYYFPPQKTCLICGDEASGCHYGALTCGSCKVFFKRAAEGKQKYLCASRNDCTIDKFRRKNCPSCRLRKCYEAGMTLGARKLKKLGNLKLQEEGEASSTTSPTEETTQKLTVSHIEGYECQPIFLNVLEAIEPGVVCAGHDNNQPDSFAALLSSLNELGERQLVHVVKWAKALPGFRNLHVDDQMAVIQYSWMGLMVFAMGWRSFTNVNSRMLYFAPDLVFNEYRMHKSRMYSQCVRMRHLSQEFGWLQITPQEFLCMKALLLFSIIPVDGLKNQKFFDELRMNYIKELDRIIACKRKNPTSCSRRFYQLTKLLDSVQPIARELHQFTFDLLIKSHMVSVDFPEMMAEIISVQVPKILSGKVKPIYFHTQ

| Structure (SMILES) | EC50 [2] [µM] | EC50 [3] [µM] | Activity [4] [%] | Activity [5] [%] | Activity [6] | IC50 [1] [µM] |
| --- | --- | --- | --- | --- | --- | --- |
| Cn1nc(C2CCC(=O)NC2=O)c2cccc(N)c21 (stereo unspecified) | > 10 | – | – | – | – | 0.19 |
| O=C1CCC(Oc2ccccc2)C(=O)N1 (stereo unspecified) | > 10 | – | – | – | – | 7 |
| Cc1ccc(NC(=O)NCc2cccc(N3CCC(=O)NC3=O)c2)cc1Cl | > 10 | > 10 | 95.2 | – | – | 8.6 |
| O=C1CCC(Nc2ccccc2)C(=O)N1 (stereo unspecified) | > 10 | – | – | – | – | 5.6 |
| Cc1ccc(NC(=O)NCc2cccc(C(=O)NC3CCC(=O)NC3=O)c2)cc1Cl (stereo unspecified) | > 10 | 0.021 | 3.1 | – | – | 3.8 |
| O=C1CCC(c2cccc(OCc3ccc(CN4CCOCC4)cc3)c2)C(=O)N1 (stereo unspecified) | > 10 | > 10 | 96.6 | – | – | 0.58 |
| Nc1ccc(N2CCC(=O)NC2=O)cc1 | > 10 | – | – | – | inactive | 23.6 |
| O=C1CCN(c2ccc(OCc3ccc(CN4CCOCC4)cc3)cc2)C(=O)N1 | > 10 | > 10 | 97.1 | – | – | 8 |
| O=C1CCC(c2ccccc2)C(=O)N1 (stereo unspecified) | > 10 | – | – | – | – | – |
| COc1cccc(C2CCC(=O)NC2=O)c1 (stereo unspecified) | > 10 | – | – | – | – | 1.7 |
| Nc1cccc2c1cnn2C1CCC(=O)NC1=O (stereo unspecified) | > 10 | – | – | – | – | 0.34 |
| Cc1ccc(NC(=O)NCc2ccc(N3CCC(=O)NC3=O)cc2)cc1Cl | > 10 | > 10 | 93.8 | – | – | 4.7 |
| O=C1CCC(c2ccc(OCc3ccc(CN4CCOCC4)cc3)cc2)C(=O)N1 (stereo unspecified) | > 10 | > 10 | 97.1 | – | – | 1.9 |
| Nc1cccc(C(=O)NC2CCC(=O)NC2=O)c1 (stereo unspecified) | > 10 | – | – | – | – | 25.8 |
| Nc1cccc(N[C@H]2CCC(=O)NC2=O)c1 | > 10 | – | – | – | – | 1.4 |
| Nc1cccc(N[C@@H]2CCC(=O)NC2=O)c1 | > 10 | – | – | – | – | 2.9 |
| O=c1ccn(-c2ccccc2)c(=O)[nH]1 | > 10 | – | – | – | – | > 100 |
| Cc1ccc(NC(=O)NCc2ccccc2C(=O)NC2CCC(=O)NC2=O)cc1Cl (stereo unspecified) | > 10 | > 10 | 88.4 | – | – | 10.3 |
| Cn1nc(N2CCC(=O)NC2=O)c2cccc(N)c21 | > 10 | – | – | – | – | 12.2 |
| Cc1ccc(NC(=O)NCc2cccc(C3CCC(=O)NC3=O)c2)cc1Cl (stereo unspecified) | > 10 | > 10 | 92.8 | – | – | 1.5 |
| Nc1cccc2c1ncn2C1CCC(=O)NC1=O (stereo unspecified) | > 10 | – | – | – | – | 0.81 |
| Nc1cccc(NC2CCC(=O)NC2=O)c1 (stereo unspecified) | > 10 | – | – | – | – | 3.7 |
| Nc1ccc(C2CCC(=O)NC2=O)cc1 (stereo unspecified) | > 10 | – | – | – | Active | 1.2 |
| O=C1CCN(c2ccccc2)C(=O)N1 | > 10 | – | – | – | – | – |
| O=C1CCC(n2ncc3ccccc32)C(=O)N1 (stereo unspecified) | > 10 | – | – | – | – | – |
| COc1ccc(C2CCC(=O)NC2=O)cc1 (stereo unspecified) | > 10 | – | – | – | – | 2.2 |
| O=C1CCN(c2cccc(OCc3ccc(CN4CCOCC4)cc3)c2)C(=O)N1 | > 10 | > 10 | 94 | – | – | 3.3 |
| Nc1cccc(N2CCC(=O)NC2=O)c1 | > 10 | – | – | – | inactive | 11.7 |
| Cn1nc(C2CCC(=O)NC2=O)c2ccccc21 (stereo unspecified) | > 10 | – | – | – | – | 0.15 |
| Nc1ccc(NC2CCC(=O)NC2=O)cc1 (stereo unspecified) | > 10 | – | – | – | – | 12.4 |

Second part, led by results:

| EC50 [2] [µM] | EC50 [3] [µM] | Activity [4] [%] | Activity [5] [%] | Activity [6] | Structure (SMILES) | IC50 [1] [µM] |
| --- | --- | --- | --- | --- | --- | --- |
| > 10 | – | – | – | – | O=C1CCC(NC(=O)c2ccccc2)C(=O)N1 (stereo unspecified) | 11.1 |
| 0.07 | > 10 | 99 | – | – | O=C1CCC(n2cnc3ccc(OCc4ccc(CN5CCOCC5)cc4)cc32)C(=O)N1 (stereo unspecified) | 0.28 |
| > 10 | 0.07 | 73.4 | 26 | – | Cc1ccc(NC(=O)NCc2ccc(C3CCC(=O)NC3=O)cc2)cc1Cl (stereo unspecified) | 0.29 |
| > 10 | – | – | – | – | Cn1nc(C2CCC(=O)NC2=O)c2ccc(N)cc21 (stereo unspecified) | 0.1 |
| > 10 | – | – | – | – | Cn1nc(N2CCC(=O)NC2=O)c2ccccc21 | 6.7 |
| > 10 | 0.1 | 33.7 | – | – | Cc1ccc(NC(=O)NCc2ccc(C(=O)NC3CCC(=O)NC3=O)cc2)cc1Cl (stereo unspecified) | 3.4 |
| > 10 | – | – | – | Active | Nc1cccc(C2CCC(=O)NC2=O)c1 (stereo unspecified) | 2.3 |
| > 10 | – | – | – | – | Cn1nc(N2CCC(=O)NC2=O)c2ccc(N)cc21 | 2.3 |
| 0.607 | – | – | – | – | Nc1ccc(C(=O)NC2CCC(=O)NC2=O)cc1 (stereo unspecified) | 5.5 |
| 0.142 | – | – | – | – | Nc1ccc2ncn(C3CCC(=O)NC3=O)c2c1 (stereo unspecified) | 0.74 |
| 0.312 | – | – | – | – | Nc1ccc2c(c1)ncn2C1CCC(=O)NC1=O (stereo unspecified) | 0.59 |
| 0.02 | – | – | – | – | Nc1cccc2c1C(=O)N(C1CCC(=O)NC1=O)C2=O (stereo unspecified) [POMALIDOMIDE] | – |
| 0.005 | 0.0003 | 3.9 | – | – | Cc1ccc(NC(=O)NCc2ccc3c(c2)CN(C2CCC(=O)NC2=O)C3=O)cc1Cl (stereo unspecified) | 0.03 |
| 0.001 | > 10 | 88.8 | – | – | O=C1CC[C@H](N2Cc3c(OCc4ccc(CN5CCOCC5)cc4)cccc3C2=O)C(=O)N1 [IBERDOMIDE] | – |
